From ChEMBL document CHEMBL3046247, “Anti-inflammatory and antioxidant activities of some extracts and pure natural products isolated from Rhus tripartitum (Ucria)” (Med Chem Res, 2010)
Converted amounts (≈) assume the structure as drawn.

Legend:
Format in all cases: functional
[1] = test system: Radical scavenging activity; assay: Antioxidant activity assessed as inhibition of DPPH radical formation at 0.2 to 1 mg/ml measured at 30 min relative to trolox
[2] = Antioxidant activity assessed as inhibition of ABTS radical formation at 0.06 mg/ml measured at 20 min relative to trolox
[3] = Antioxidant activity assessed as inhibition of ABTS radical formation at 0.03 mg/ml measured at 20 min relative to trolox
[4] = Antioxidant activity assessed as inhibition of ABTS radical formation at 0.25 mg/ml measured at 20 min relative to trolox
[5] = Antioxidant activity assessed as inhibition of ABTS radical formation at 0.12 mg/ml measured at 20 min relative to trolox
[6] = Antioxidant activity assessed as inhibition of ABTS radical formation at 1 mg/ml measured at 20 min relative to trolox
[7] = Antioxidant activity assessed as inhibition of ABTS radical formation at 0.5 mg/ml measured at 20 min relative to trolox
[8] = Antioxidant activity assessed as inhibition of ABTS radical formation at 0.03 mg/ml measured at 15 min relative to trolox
[9] = Antioxidant activity assessed as inhibition of ABTS radical formation at 0.12 mg/ml measured at 15 min relative to trolox
[10] = Antioxidant activity assessed as inhibition of ABTS radical formation at 0.06 mg/ml measured at 15 min relative to trolox
[11] = Antioxidant activity assessed as inhibition of ABTS radical formation at 0.25 mg/ml measured at 15 min relative to trolox
[12] = Antioxidant activity assessed as inhibition of ABTS radical formation at 1 mg/ml measured at 15 min relative to trolox
[13] = Antioxidant activity assessed as inhibition of ABTS radical formation at 0.5 mg/ml measured at 15 min relative to trolox
[14] = Antioxidant activity assessed as inhibition of ABTS radical formation at 0.03 mg/ml measured at 10 min relative to trolox
[15] = Antioxidant activity assessed as inhibition of ABTS radical formation at 0.06 mg/ml measured at 10 min relative to trolox
[16] = Antioxidant activity assessed as inhibition of ABTS radical formation at 0.12 mg/ml measured at 10 min relative to trolox
[17] = Antioxidant activity assessed as inhibition of ABTS radical formation at 0.25 mg/ml measured at 10 min relative to trolox
[18] = Antioxidant activity assessed as inhibition of ABTS radical formation at 0.5 mg/ml measured at 10 min relative to trolox
[19] = Antioxidant activity assessed as inhibition of ABTS radical formation at 1 mg/ml measured at 10 min relative to trolox
[20] = Antioxidant activity assessed as inhibition of ABTS radical formation at 0.03 mg/ml measured at 5 min relative to trolox
[21] = Antioxidant activity assessed as inhibition of ABTS radical formation at 0.06 mg/ml measured at 5 min relative to trolox
[22] = Antioxidant activity assessed as inhibition of ABTS radical formation at 0.12 mg/ml measured at 5 min relative to trolox
[23] = Antioxidant activity assessed as inhibition of ABTS radical formation at 0.25 mg/ml measured at 5 min relative to trolox
[24] = Antioxidant activity assessed as inhibition of ABTS radical formation at 0.5 mg/ml measured at 5 min relative to trolox
[25] = Antioxidant activity assessed as inhibition of ABTS radical formation at 1 mg/ml measured at 5 min relative to trolox
[26] = Antioxidant activity assessed as trolox equivalent of ABTS radical scavenging activity at 15 min
[27] = Antioxidant activity assessed as trolox equivalent of ABTS radical scavenging activity at 20 min
[28] = Antioxidant activity assessed as trolox equivalent of ABTS radical scavenging activity at 5 min
[29] = Antioxidant activity assessed as trolox equivalent of ABTS radical scavenging activity at 10 min
[30] = test system: Radical scavenging activity; assay: Antioxidant activity assessed as inhibition of DPPH radical formation measured at 30 min relative to trolox
Rattus norvegicus [31] = assay: Anti-inflammatory activity in fasted Rattus norvegicus Wistar (rat) assessed as inhibition of carrageenan-induced paw edema at 0.1 mg/kg, ip administered 1 hr prior to carrageenan challenge measured at 5 hr relative to control; details: route intraperitoneal
Rattus norvegicus [32] = assay: Anti-inflammatory activity in fasted Rattus norvegicus Wistar (rat) assessed as inhibition of carrageenan-induced paw edema at 0.5 mg/kg, ip administered 1 hr prior to carrageenan challenge measured at 5 hr relative to control; details: route intraperitoneal
Rattus norvegicus [33] = assay: Anti-inflammatory activity in fasted Rattus norvegicus Wistar (rat) assessed as inhibition of carrageenan-induced paw edema at 1 mg/kg, ip administered 1 hr prior to carrageenan challenge measured at 5 hr relative to control; details: route intraperitoneal
Rattus norvegicus [34] = assay: Anti-inflammatory activity in fasted Rattus norvegicus Wistar (rat) assessed as inhibition of carrageenan-induced paw edema at 0.1 mg/kg, ip administered 1 hr prior to carrageenan challenge measured at 3 hr relative to control; details: route intraperitoneal
Rattus norvegicus [35] = assay: Anti-inflammatory activity in fasted Rattus norvegicus Wistar (rat) assessed as inhibition of carrageenan-induced paw edema at 0.5 mg/kg, ip administered 1 hr prior to carrageenan challenge measured at 3 hr relative to control; details: route intraperitoneal
Rattus norvegicus [36] = assay: Anti-inflammatory activity in fasted Rattus norvegicus Wistar (rat) assessed as inhibition of carrageenan-induced paw edema at 1 mg/kg, ip administered 1 hr prior to carrageenan challenge measured at 3 hr relative to control; details: route intraperitoneal
Rattus norvegicus [37] = assay: Anti-inflammatory activity in fasted Rattus norvegicus Wistar (rat) assessed as inhibition of carrageenan-induced paw edema at 0.1 mg/kg, ip administered 1 hr prior to carrageenan challenge measured at 1 hr relative to control; details: route intraperitoneal
Rattus norvegicus [38] = assay: Anti-inflammatory activity in fasted Rattus norvegicus Wistar (rat) assessed as inhibition of carrageenan-induced paw edema at 0.5 mg/kg, ip administered 1 hr prior to carrageenan challenge measured at 1 hr relative to control; details: route intraperitoneal
Rattus norvegicus [39] = assay: Anti-inflammatory activity in fasted Rattus norvegicus Wistar (rat) assessed as inhibition of carrageenan-induced paw edema at 1 mg/kg, ip administered 1 hr prior to carrageenan challenge measured at 1 hr relative to control; details: route intraperitoneal
[40] = test system: Radical scavenging activity; assay: Antioxidant activity assessed as inhibition of DPPH radical formation at 1 mg/ml measured at 30 min relative to trolox

Row | Structure (SMILES) | Imax [2] | Imax [3] | Imax [4] | Imax [5] | Imax [6] | Imax [7] | Imax [8] | Imax [9] | Imax [10] | Imax [11] | Imax [12] | Imax [13] | Imax [14] | Imax [15] | Imax [16] | Imax [17] | Imax [18] | Imax [19] | Imax [20] | Imax [21] | also measured
1 | O=c1c(O)c(-c2cc(O)c(O)c(O)c2)oc2cc(O)cc(O)c12 [MYRICETIN] | 32.8% | 16.6% | 88.6% | 53.2% | 99.8% | 98.6% | 16% | 51.1% | 31.6% | 86.1% | 99.8% | 98.6% | 14.5% | 29.8% | 48.3% | 83.2% | 98.7% | 99.8% | 13.3% | 27.8% | Imax [1]: 75.1%; Imax [22]: 45.4%; Imax [23]: 78.8%; Imax [24]: 98.5%; Imax [25]: 99.7%; Activity [26]: 2.38 mMequiv/mg; Activity [27]: 2.4 mMequiv/mg; Activity [28]: 2.4 mMequiv/mg; Activity [29]: 2.4 mMequiv/mg; IC50 [30]: 22 µg/mL (≈ 69.1 µM)
2 | O=C1C[C@H](c2ccc(O)cc2)Oc2cc(Oc3c(O)cc4c(c3O)C(=O)C[C@H](c3ccc(O)cc3)O4)cc(O)c21 [MASAZINOFLAVANONE] | 38.4% | 18.3% | 52.3% | 45.7% | 77.7% | 64.4% | 16.3% | 43.2% | 36.2% | 49.8% | 75.5% | 62.5% | 15.1% | 30.4% | 35.9% | 47.7% | 60.6% | 73% | 13.3% | 26.7% | Imax [22]: 32.8%; Imax [23]: 40.9%; Imax [24]: 59.5%; Imax [25]: 72%; inhibition in vivo at 0.1 mg/kg (Rattus norvegicus [31]): 10%; inhibition in vivo at 0.5 mg/kg (Rattus norvegicus [32]): 14%; inhibition in vivo at 1 mg/kg (Rattus norvegicus [33]): 27%; inhibition in vivo at 0.1 mg/kg (Rattus norvegicus [34]): 8%; inhibition in vivo at 0.5 mg/kg (Rattus norvegicus [35]): 25%; inhibition in vivo at 1 mg/kg (Rattus norvegicus [36]): 31%; inhibition in vivo at 0.1 mg/kg (Rattus norvegicus [37]): 7%; inhibition in vivo at 0.5 mg/kg (Rattus norvegicus [38]): 24%; inhibition in vivo at 1 mg/kg (Rattus norvegicus [39]): 31%; Activity [26]: 1.18 mMequiv/mg; Activity [27]: 1.2 mMequiv/mg; Activity [28]: 1.12 mMequiv/mg; Activity [29]: 1.15 mMequiv/mg
3 | COc1cc([C@@H]2c3c(cc(OC)c(O)c3OC)C[C@H](CO)[C@H]2CO[C@@H]2O[C@H](CO)[C@@H](O)[C@H](O)[C@H]2O)cc(OC)c1O | 29.9% | 23.3% | 47.8% | 35.7% | 65.5% | 66.6% | 18.9% | 30.9% | 24.6% | 41.6% | 60.1% | 60.9% | 15.3% | 20.8% | 27.2% | 37.8% | 55.5% | 55.3% | 13.2% | 18% | Imax [40]: 64.4%; Imax [22]: 23.8%; Imax [23]: 31.9%; Imax [24]: 48.5%; Imax [25]: 49.4%; Activity [26]: 1.45 mMequiv/mg; Activity [27]: 1.58 mMequiv/mg; Activity [28]: 1.19 mMequiv/mg; Activity [29]: 1.33 mMequiv/mg; IC50 [30]: 251.1 µg/mL (≈ 431 µM)
4 | C[C@@H]1C[C@H]2[C@@H]3CCC4=CC(=O)C=C[C@]4(C)[C@@]3(F)[C@@H](O)C[C@]2(C)[C@@]1(O)C(=O)CO [DEXAMETHASONE] |  |  |  |  |  |  |  |  |  |  |  |  |  |  |  |  |  |  |  |  | inhibition in vivo at 1 mg/kg (Rattus norvegicus [33]): 40%; inhibition in vivo at 1 mg/kg (Rattus norvegicus [36]): 30%; inhibition in vivo at 1 mg/kg (Rattus norvegicus [39]): 23%
